The results in this text go back to patent publication US11884642B2, “Compounds useful as potassium channel openers” (ACOUSIA THERAPEUTICS GMBH, priority 2017, dated 2024).

The structures appear in SMILES notation.

The data set deals with guinea pigs. The data set is described as follows: Ototoxic drug-induced (kanamycin/furosemide) hearing loss model in vivo, CAP threshold recordings of the auditory nerve. Set-up: species or system guinea pig. How it is done:
The inventive compounds were also tested in vivo. In this context, for repeated recording of the Compound Action Potential (CAP) of the auditory nerve, guinea pigs were bilaterally implanted with a permanent gold electrode at the round window niche. The round window is an opening from the middle ear into the inner ear. The gold electrodes were connected to a miniature plug on the skull. During the experiments, audiograms were determined between 0.5 and 45.6 kHz, at a resolution of 8 steps per octave. An automated threshold search algorithm was applied.
After a baseline audiogram was measured, the animals were pretreated with an inventive compound, as an ion channel activator, via local application to the middle ear. The corresponding solution of the inventive compound was removed after an exposure time, e. g. after 2 hours. Then, the middle ear was rinsed and dried out before CAP recordings were performed to assess threshold shifts.
Then, deafness was induced with the Guinea pigs by local application to the middle ear of a mixture of at least one ototoxic agent and at least one inventive compound. E. g. kanamycin, furosemide or mixtures of these compounds can be used as ototoxic agents.
The resulting CAP response thresholds were compared to ears which were exposed to the ototoxic agents alone.
All animals received care in accordance with the standards described by the German ‘Law on Protecting Animals’ (Tierschutzgesetz) and with the European Directive 2010/63/EU for the protection of animals used for experimental purposes. Experiments were approved by the local authorities (Application HN03/15).
All procedures were performed under anesthesia using a mixture of Fentanyl, Midazolam and Medetomidine. During surgery and measurements animals were kept on a 37° C. heating pad. For repeated recording of the Compound Action Potential (CAP) of the auditory nerve, guinea pigs were bilaterally implanted with a permanent gold electrode at the round window (RW) niche connected to a miniature plug on the skull. Audiograms were determined between 0.5 and 45.6 kHz, at a resolution of 8 steps per octave. An automated threshold search algorithm was applied.
After a baseline audiogram was measured, animals were pretreated with an ion channel activator, in this case with ACOU001, via local application to the middle ear. […]
The solution containing ACOU001 was removed after 2 hours and the middle ear rinsed and dried out before CAP recordings were performed to assess threshold shifts. […] After the final measurement on day 21, animals were sacrificed, cochleae fixed by perfusion with 4% paraformaldehyde and prepared for immunohistological analysis to quantify hair cell (HC) protection.

`O=C(NCc1ccc(S(F)(F)(F)(F)F)cc1)c1ccc(Cl)s1` [ACOU001, 5-Chloro-N-(4-(pentafluorosulfanyl)benzyl)thiophene-2-carboxamide]: the “CAP curves (threshold levels) over time after co-treatment” value (7 and 21 days after kanamycin/furosemide plus compound) is “shifted to higher threshold levels after seven days but ameliorated after 21 days”. Further, the “reduction of hearing loss compared to the ototoxic drug alone” value is, setting by setting: (after 21 days, all frequencies, co-treatment with kanamycin/furosemide) 25-40 dB SPL; (day 0, mid to high frequencies (5-11 kHz), 100 μM with 200 mg/ml kanamycin, 50 mg/ml furosemide, local to middle ear) about 25 dB SPL. Moreover, the “CAP-threshold loss after pretreatment” value (day 0, 2 hours local application to the middle ear, compared to baseline CAP-thresholds in untreated ears) is on record as “small, most likely conductive, hearing loss”.
